Data from patent US20230038929A1, “Fused Tricyclic Heterocyclic Compounds and Uses Thereof” (Verge Analytics, Inc., priority 2019, published 2023).

Columns and labels:
PI3Kδ (p110δ/p85α) = biological target: T1, PI3Kδ (p110δ/p85α) (Homo sapiens, UniProt O00329); format: biochemical; details: 0.25 nM enzyme, ATP 90 μM, 1 μM PIP2, 3 h room temperature; read-out: PI3Kδ IC50
T1 construct: Full-length N-terminal GST-; GST (N); host or cells: SF9 cells (baculovirus)

[1] = biological target: T2, Full length human recombinant PIKFYVE (Homo sapiens, UniProt Q9Y2I7, L932S/Q1183K/Q995L/S1033A/S696N/T998S); experiment: Inhibition of PIKfyve (microfluidic electrophoresis kinase assay); format: biochemical; details: 2 nM enzyme, 1 μM PI3P, 3 h at room temperature, 12 concentrations; read-out: PIKfyve IC50
T2 construct: Full length human recombinant PIKFYVE; purchased Carna Biosciences (Kobe, Japan); host or cells: baculovirus expression system (insect cells)
Method: Biological Example 1: Inhibition of PIKfyve
Full length human recombinant PIKFYVE expressed in baculovirus expression system as N-terminal GST-fusion protein (265 kDa) was obtained from Carna Biosciences (Kobe, Japan). The kinase substrate was prepared by mixing and sonicating fluorescently-labeled phosphatidylinositol 3-phosphate (PI3P) with phospho-L-serine (PS) at a 1:10 ratio in 50 mM HEPES buffer pH7.5.
The kinase reactions were assembled in 384-well plates (Greiner) in a total volume of […] as follows. Kinase protein was pre-diluted in an assay buffer comprising 25 mM HEPES, pH 7.5, 1 mM DTT, 2.5 mM MgCl2, and 2.5 mM MnCl2, and 0.005% Triton X-100, and dispensed into a 384-well plate (10 μL per well). Test compounds were serially pre-diluted in DMSO and added to the protein samples by acoustic dispensing (Labcyte Echo). The concentration of DMSO was equalized to 1% in all samples. All test compounds were tested at 12 concentrations. Apilimod was used as a reference compound and was tested in identical manner in each assay plate. Control samples (0%-inhibition, in the absence of inhibitor, DMSO only) and 100%-inhibition (in the absence of enzyme) were assembled in replicates of four and were used to calculate %-inhibition in the presence of compounds. The reactions were initiated by addition of 10 μL of 2× PI3P/PS substrate supplemented with ATP. The final concentration of enzyme was 2 nM, the final concentration of ATP was […], and the final concentration of PI3P/PS substrate was 1 μM (PI3P). The kinase reactions were allowed to proceed for 3 h at room temperature. Following incubation, the reactions were quenched by addition of […] of termination buffer (100 mM HEPES, pH 7.5, 0.01% Triton X-100, 20 mM EDTA). Terminated plates were analyzed on a microfluidic electrophoresis instrument (Caliper LabChip® 3000, Caliper Life Sciences/Perkin Elmer). The change in the relative fluorescence intensity of the PI(3)P substrate and PI(3,5)P product peaks was measured. The activity in each test sample was determined as the product to sum ratio (PSR): P/(S+P), where P is the peak height of the product, and S is the peak height of the substrate. Percent inhibition (Pinh) was determined using the following equation:
Pinh=(PSR0%inh−PSRcompound)/(PSR0%inh−P100%inh)*100
in which PSRcompound is the product/sum ratio in the presence of compound, PSR0%inh is the product/sum ratio in the absence of compound, and the PSR100%inh is the product/sum ratio in the absence of the enzyme. To determine the ICso of test compounds (50%-inhibition) the %-inh cdata (Pinh versus compound concentration) were fitted by a four-parameter sigmoid dose-response model using XLfit software (IDBS).

PI3Kβ (p110β/p85α) = biological target: T3, PI3Kβ (p110β/p85α) (Homo sapiens, UniProt P42338); format: biochemical; details: 1 nM enzyme, ATP 60 μM, 1 μM PIP2, 3 h room temperature; read-out: PI3Kβ IC50
T3 construct: Full-length N-terminal GST-; GST (N); host or cells: SF9 cells (baculovirus)

IPSC-C9 motor neurons = experiment: iPSC MN Survival assay (IPSC-C9); format: cell-based, human; details: maximal reduction in hazard ratio vs control at various concentrations; <1.0 increased survival, >1.0 decreased survival
[2] = tested on: ALS patient (SOD1 A4V) iPSC derived motor neurons; experiment: iPSC MN Survival assay (IPSC-SOD1); format: cell-based, human; details: nutrient deprived media (HBSS), six days, maximal reduction in hazard ratio, <1.0 increased survival
Method: Biological Example 4: iPSC MN Survival assay
Fibroblasts from ALS patients with known SOD1 A4V mutation were reprogrammed into inducible pluripotent stem cells (iPSC) and then differentiated to motor neurons. In culture, ALS patient derived motor neurons show increased death rate compared to motor neurons derived from healthy individuals in a stressed condition (nutrient deprived media, Hank's buffered salt solution—HBSS). […] Cell rescue was measured following more than two different concentrations of each compound for six days with greater than four replicates in a 96-well format to ensure studies with power >0.8. Cells are transduced with a GFP reporter and imaged once a day to track survival. A broad-spectrum caspase inhibitor served as the positive control.
Microscopy image-based readout: Cells are transduced with a GFP reporter and imaged once a day with a blue laser to track survival. Imagers used include the Biotek Cytation 5 and Thermo Fisher EVOS Auto FL 2. All Images undergo uniform processing consisting of rolling hat background subtraction and contrast adjustment. Microscopy images are analyzed using software proprietary to Verge. Cells are identified by their shape and each cell is tracked across images and time points for each well. Survival is visually assessed from the Kaplan-Meier curves. Survival of the cells is modeled and tested using a mixed effects Cox regression where each well is modeled as the random effect, and the group (control/treatment) as the fixed effect. […]. Data are presented in Table 7 as the maximal reduction in hazard ratio scores measured at various concentrations.

PI3Kα (p110α/p85α) = biological target: T4, PI3Kα (p110α/p85α) (Homo sapiens, UniProt P42336); format: biochemical; details: 0.5 nM enzyme, ATP 90 μM, 1 μM PIP2, 3 h room temperature; read-out: PI3Kα IC50
T4 construct: Full-length N-terminal; FLAG (N); host or cells: SF9 cells (baculovirus)
T4 sequence (P42336 whole entry): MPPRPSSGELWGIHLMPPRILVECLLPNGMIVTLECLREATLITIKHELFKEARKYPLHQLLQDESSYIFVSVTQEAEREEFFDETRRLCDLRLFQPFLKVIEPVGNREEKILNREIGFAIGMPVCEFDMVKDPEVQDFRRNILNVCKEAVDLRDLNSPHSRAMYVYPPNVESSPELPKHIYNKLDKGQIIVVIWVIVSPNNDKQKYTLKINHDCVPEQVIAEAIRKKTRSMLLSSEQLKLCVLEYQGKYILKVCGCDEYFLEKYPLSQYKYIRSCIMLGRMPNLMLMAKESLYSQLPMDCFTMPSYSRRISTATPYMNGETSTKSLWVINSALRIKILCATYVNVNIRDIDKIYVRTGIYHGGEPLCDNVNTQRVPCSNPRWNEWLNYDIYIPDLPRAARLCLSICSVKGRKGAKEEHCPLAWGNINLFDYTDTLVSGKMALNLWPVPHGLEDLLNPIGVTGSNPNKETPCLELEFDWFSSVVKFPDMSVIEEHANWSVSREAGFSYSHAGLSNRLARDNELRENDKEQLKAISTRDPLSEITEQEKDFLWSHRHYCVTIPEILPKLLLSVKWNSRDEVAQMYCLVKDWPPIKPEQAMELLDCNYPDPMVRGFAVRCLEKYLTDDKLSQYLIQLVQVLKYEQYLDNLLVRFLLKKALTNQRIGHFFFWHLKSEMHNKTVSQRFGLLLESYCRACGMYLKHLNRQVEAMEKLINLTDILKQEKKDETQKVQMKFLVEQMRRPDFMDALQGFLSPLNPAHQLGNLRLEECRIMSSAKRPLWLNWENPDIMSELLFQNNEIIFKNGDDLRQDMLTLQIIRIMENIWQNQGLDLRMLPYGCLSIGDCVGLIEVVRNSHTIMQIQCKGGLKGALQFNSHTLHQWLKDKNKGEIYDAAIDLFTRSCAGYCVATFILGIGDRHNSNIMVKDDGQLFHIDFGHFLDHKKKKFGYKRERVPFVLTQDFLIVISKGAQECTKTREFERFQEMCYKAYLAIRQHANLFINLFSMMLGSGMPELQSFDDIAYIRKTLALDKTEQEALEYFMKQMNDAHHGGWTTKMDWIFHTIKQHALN
T4 sequence (P27986 whole entry, further chain): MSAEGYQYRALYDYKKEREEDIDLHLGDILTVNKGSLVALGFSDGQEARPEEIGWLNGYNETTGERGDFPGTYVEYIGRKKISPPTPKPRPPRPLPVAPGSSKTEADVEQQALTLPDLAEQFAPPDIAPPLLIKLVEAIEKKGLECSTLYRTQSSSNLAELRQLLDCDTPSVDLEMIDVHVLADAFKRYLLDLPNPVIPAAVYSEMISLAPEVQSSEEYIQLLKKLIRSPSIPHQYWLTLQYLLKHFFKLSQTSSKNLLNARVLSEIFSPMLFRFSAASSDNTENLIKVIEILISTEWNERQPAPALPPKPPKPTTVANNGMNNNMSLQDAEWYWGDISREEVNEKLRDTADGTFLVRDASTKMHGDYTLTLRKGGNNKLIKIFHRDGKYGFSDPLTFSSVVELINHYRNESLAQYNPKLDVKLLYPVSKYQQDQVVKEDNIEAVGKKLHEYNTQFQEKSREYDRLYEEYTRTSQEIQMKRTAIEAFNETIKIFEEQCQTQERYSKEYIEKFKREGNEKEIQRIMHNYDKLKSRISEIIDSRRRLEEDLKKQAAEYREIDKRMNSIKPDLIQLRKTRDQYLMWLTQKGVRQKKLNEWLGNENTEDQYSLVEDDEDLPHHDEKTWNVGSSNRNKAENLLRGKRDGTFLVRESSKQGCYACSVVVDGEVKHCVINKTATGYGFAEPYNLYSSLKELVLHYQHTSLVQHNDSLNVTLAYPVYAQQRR

T1 sequence (O00329 whole entry): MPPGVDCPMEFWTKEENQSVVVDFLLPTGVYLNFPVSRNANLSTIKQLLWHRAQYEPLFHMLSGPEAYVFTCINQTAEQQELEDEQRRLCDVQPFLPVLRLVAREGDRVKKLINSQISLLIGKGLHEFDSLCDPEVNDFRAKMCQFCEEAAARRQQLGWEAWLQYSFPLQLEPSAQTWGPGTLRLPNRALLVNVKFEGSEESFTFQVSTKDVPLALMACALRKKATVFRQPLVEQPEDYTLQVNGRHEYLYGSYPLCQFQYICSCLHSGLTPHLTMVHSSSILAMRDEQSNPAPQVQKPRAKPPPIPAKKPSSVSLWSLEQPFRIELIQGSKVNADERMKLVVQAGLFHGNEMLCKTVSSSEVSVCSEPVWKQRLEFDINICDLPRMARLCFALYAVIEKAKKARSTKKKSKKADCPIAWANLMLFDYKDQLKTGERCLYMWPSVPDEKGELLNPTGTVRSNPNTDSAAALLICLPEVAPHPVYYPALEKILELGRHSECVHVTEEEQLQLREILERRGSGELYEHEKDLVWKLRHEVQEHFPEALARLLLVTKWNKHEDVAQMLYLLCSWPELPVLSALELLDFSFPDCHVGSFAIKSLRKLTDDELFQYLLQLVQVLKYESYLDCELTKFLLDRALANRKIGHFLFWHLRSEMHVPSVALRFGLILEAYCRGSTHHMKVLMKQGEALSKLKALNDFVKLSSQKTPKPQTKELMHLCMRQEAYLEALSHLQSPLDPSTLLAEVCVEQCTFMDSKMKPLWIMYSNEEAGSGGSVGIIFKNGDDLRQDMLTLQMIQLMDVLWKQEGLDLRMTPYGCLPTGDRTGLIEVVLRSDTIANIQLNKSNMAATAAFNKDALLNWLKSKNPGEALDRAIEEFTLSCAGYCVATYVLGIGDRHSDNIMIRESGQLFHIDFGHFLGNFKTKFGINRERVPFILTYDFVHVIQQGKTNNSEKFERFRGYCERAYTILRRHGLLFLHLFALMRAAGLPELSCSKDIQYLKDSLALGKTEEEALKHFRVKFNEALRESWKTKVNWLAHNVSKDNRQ
T1 sequence (P27986 whole entry, further chain): as the sequence (P27986 whole entry, further chain) above
T3 sequence (P42338 whole entry): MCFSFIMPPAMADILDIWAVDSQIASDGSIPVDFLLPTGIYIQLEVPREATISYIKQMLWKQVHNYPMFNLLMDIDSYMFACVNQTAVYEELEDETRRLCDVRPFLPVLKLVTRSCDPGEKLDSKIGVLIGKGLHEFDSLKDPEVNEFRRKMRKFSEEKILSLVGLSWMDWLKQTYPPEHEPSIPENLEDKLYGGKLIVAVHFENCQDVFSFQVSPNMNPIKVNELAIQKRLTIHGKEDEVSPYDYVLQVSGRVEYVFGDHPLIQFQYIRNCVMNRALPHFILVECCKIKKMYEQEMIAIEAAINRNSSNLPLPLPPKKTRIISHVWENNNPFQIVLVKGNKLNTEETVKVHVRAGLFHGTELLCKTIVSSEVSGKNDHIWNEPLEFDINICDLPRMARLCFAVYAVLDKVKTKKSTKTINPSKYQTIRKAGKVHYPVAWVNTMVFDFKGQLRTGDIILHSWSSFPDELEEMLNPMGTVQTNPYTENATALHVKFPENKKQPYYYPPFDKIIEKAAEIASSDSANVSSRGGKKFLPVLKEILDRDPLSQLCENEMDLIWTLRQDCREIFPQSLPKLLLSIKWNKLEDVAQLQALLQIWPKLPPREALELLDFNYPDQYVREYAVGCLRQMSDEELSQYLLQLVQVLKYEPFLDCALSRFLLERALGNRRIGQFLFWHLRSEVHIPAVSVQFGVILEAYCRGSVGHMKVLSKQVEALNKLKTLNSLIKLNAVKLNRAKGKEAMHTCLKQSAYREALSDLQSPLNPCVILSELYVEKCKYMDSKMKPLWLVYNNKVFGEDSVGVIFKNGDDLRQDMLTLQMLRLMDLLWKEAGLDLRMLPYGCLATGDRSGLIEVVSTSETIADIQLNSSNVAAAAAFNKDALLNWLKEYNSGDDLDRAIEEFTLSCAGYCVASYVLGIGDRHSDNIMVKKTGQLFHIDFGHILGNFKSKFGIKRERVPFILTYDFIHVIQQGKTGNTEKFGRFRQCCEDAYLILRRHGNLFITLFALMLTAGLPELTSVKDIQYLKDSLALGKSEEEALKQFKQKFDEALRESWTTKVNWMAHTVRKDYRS
T3 sequence (P27986 whole entry, further chain): as the sequence (P27986 whole entry, further chain) above

Row | SMILES | IC50 (PI3Kδ (p110δ/p85α)) | IC50 [1] | IC50 (PI3Kβ (p110β/p85α)) | IPSC-C9 (Hazard Ratio) (IPSC-C9 motor neurons) | IPSC-SOD1 (Hazard Ratio) [2] | IC50 (PI3Kα (p110α/p85α))
1 | Cc1cc(N(C)c2nc(N3CCOCC3)c3oc4ncccc4c3n2)nn1C [Example 11, N-(1,5-Dimethyl-1H-pyrazol-3-yl)-N-methyl-4-morpholinopyrido[3′,2′:4,5]furo[3,2-d]pyrimidin-2-amine] | 278 nM | > 10000 nM | 7030 nM | 0.99 | 1.1 | 244 nM
2 | c1cnc2oc3c(N4CCOCC4)nc(Nc4cc(-c5ccncc5)n[nH]4)nc3c2c1 [Example 10, 4-Morpholino-N-(3-(pyridin-4-yl)-1H-pyrazol-5-yl)pyrido[3′,2′:4,5]furo[3,2-d]pyrimidin-2-amine] | 37 nM | 185 nM | 1310 nM | 0.96 | 1.04 | 117 nM
3 | Cc1cccc(-c2cc(Nc3nc(N4CCOCC4)c4oc5ncccc5c4n3)[nH]n2)c1 [Example 49, 4-morpholino-N-(3-(m-tolyl)-1H-pyrazol-5-yl)pyrido[3′,2′:4,5]furo[3,2-d]pyrimidin-2-amine] |  | 38 nM |  | 1.2 | 1.03 | 
4 | Cl.c1cnc2oc3c(N4CCOCC4)nc(Nc4cc(-c5ccsc5)n[nH]4)nc3c2c1 [Example 61, 4-morpholino-N-(3-(thiophen-3-yl)-1H-pyrazol-5-yl)pyrido[3′,2′:4,5]furo[3,2-d]pyrimidin-2-amine hydrochloride] |  | 26 nM |  | 0.542 |  | 
5 | c1ccc(-c2cc(Nc3nc(N4CCOCC4)c4oc5ncccc5c4n3)[nH]n2)cc1 [Example 9, 4-Morpholino-N-(3-phenyl-1H-pyrazol-5-yl)pyrido[3′,2′:4,5]furo[3,2-d]pyrimidin-2-amine] | 75 nM | 23 nM | > 10000 nM | 0.65 | 0.81 | 144 nM
6 | c1ccc(-c2cc(Nc3nc(N4CCOCC4)c4oc5ncc(CCN6CCCC6)cc5c4n3)[nH]n2)cc1 [Example 14, 4-Morpholino-N-(3-phenyl-1H-pyrazol-5-yl)-8-(2-(pyrrolidin-1-yl)ethyl)pyrido[3′,2′:4,5]furo[3,2-d]pyrimidin-2-amine] |  | 2320 nM |  | 0.9 | 0.96 | 
7 | c1ccc(Nc2nc(N3CCOCC3)c3oc4ncccc4c3n2)cc1 [Example 37, 4-morpholino-N-phenylpyrido[3′,2′:4,5]furo[3,2-d]pyrimidin-2-amine] | 41 nM | 439 nM | 1040 nM | 0.99 | 1.03 | 67 nM
8 | Cc1cc(Nc2nc(N3CCOCC3)c3oc4ncccc4c3n2)nn1C [Example 47, N-(1,5-dimethyl-1H-pyrazol-3-yl)-4-morpholinopyrido[3′,2′:4,5]furo[3,2-d]pyrimidin-2-amine] | 54 nM | 4320 nM | 2630 nM |  | 1.1 | 82 nM
9 | c1cnc2oc3c(N4CCOCC4)nc(Nc4cncnc4)nc3c2c1 [Example 43, 4-morpholino-N-(pyrimidin-5-yl)pyrido[3′,2′:4,5]furo[3,2-d]pyrimidin-2-amine] |  | > 10000 nM |  | 1.06 | 1.1 | 
10 | Cc1cc(Nc2nc(N3CCOCC3)c3oc4ncccc4c3n2)[nH]n1 [Example 8, N-(3-Methyl-1H-pyrazol-5-yl)-4-morpholinopyrido[3′,2′:4,5]furo[3,2-d]pyrimidin-2-amine] | 23.9 nM | 2200 nM | 306 nM |  |  | 161 nM
